Test results: patent US20050197350A1, “Novel quinoline, tetrahydroquinazoline, and pyrimidine derivatives and methods of treatment related to the use thereof” (TAISHO PHARMACEUTICAL CO., LTD., priority 2003, published 2005)

system: MCH receptors; assay: MCH receptor activity class (method not given); settings: MCH receptor; class by percent of control at 10^-7 M or IC50

Compound	class
CN(C)c1nc(N[C@H]2CC[C@@H](NC(=S)Nc3cc(Cl)ccc3Cl)CC2)nc2c1CCCC2 [compound 1936]	3 (Class 3 The value of percent of control at 10^−7 M was more than 60% or the value of IC50 was more than 200 nM.)
CN(C)c1nc(N[C@H]2CC[C@@H](NC(=S)Nc3ccc(Cl)c(Cl)c3)CC2)nc2c1CCCC2 [compound 1937]	3 (Class 3 The value of percent of control at 10^−7 M was more than 60% or the value of IC50 was more than 200 nM.)
CN(C)c1nc(N[C@H]2CC[C@@H](NC(=S)Nc3c(Cl)cccc3Cl)CC2)nc2c1CCCC2 [compound 1938]	3 (Class 3 The value of percent of control at 10^−7 M was more than 60% or the value of IC50 was more than 200 nM.)
CCOc1ccc(NC(=S)N[C@H]2CC[C@@H](Nc3nc4c(c(N(C)C)n3)CCCC4)CC2)cc1 [compound 1939]	3 (Class 3 The value of percent of control at 10^−7 M was more than 60% or the value of IC50 was more than 200 nM.)
CN(C)c1nc(N[C@H]2CC[C@@H](NC(=S)NCc3ccco3)CC2)nc2c1CCCC2 [compound 1940]	3 (Class 3 The value of percent of control at 10^−7 M was more than 60% or the value of IC50 was more than 200 nM.)
CN(C)c1nc(N[C@H]2CC[C@@H](NC(=S)Nc3ccc(F)cc3)CC2)nc2c1CCCC2 [compound 1941]	3 (Class 3 The value of percent of control at 10^−7 M was more than 60% or the value of IC50 was more than 200 nM.)
CCCCCCNC(=S)N[C@H]1CC[C@@H](Nc2nc3c(c(N(C)C)n2)CCCC3)CC1 [compound 1942]	3 (Class 3 The value of percent of control at 10^−7 M was more than 60% or the value of IC50 was more than 200 nM.)
CCC[C@H]1CC[C@H](c2ccc(NC(=S)N[C@H]3CC[C@@H](Nc4nc5c(c(N(C)C)n4)CCCC5)CC3)cc2)CC1 [compound 1943]	3 (Class 3 The value of percent of control at 10^−7 M was more than 60% or the value of IC50 was more than 200 nM.)
CC(C)CNC(=S)N[C@H]1CC[C@@H](Nc2nc3c(c(N(C)C)n2)CCCC3)CC1 [compound 1944]	3 (Class 3 The value of percent of control at 10^−7 M was more than 60% or the value of IC50 was more than 200 nM.)
COc1ccc(-c2ccccc2)cc1NC(=S)N[C@H]1CC[C@@H](Nc2nc3c(c(N(C)C)n2)CCCC3)CC1 [compound 1945]	3 (Class 3 The value of percent of control at 10^−7 M was more than 60% or the value of IC50 was more than 200 nM.)
CN(C)c1nc(N[C@H]2CC[C@@H](NC(=S)NCc3ccc4c(c3)OCO4)CC2)nc2c1CCCC2 [compound 1946]	3 (Class 3 The value of percent of control at 10^−7 M was more than 60% or the value of IC50 was more than 200 nM.)
Cc1cccc(NC(=S)N[C@H]2CC[C@@H](Nc3nc4c(c(N(C)C)n3)CCCC4)CC2)c1 [compound 1947]	3 (Class 3 The value of percent of control at 10^−7 M was more than 60% or the value of IC50 was more than 200 nM.)
CSc1ccc(NC(=S)N[C@H]2CC[C@@H](Nc3nc4c(c(N(C)C)n3)CCCC4)CC2)cc1 [compound 1948]	3 (Class 3 The value of percent of control at 10^−7 M was more than 60% or the value of IC50 was more than 200 nM.)
COc1ccc(NC(=S)N[C@H]2CC[C@@H](Nc3nc4c(c(N(C)C)n3)CCCC4)CC2)cc1 [compound 1949]	3 (Class 3 The value of percent of control at 10^−7 M was more than 60% or the value of IC50 was more than 200 nM.)
C=C(C)CNC(=S)N[C@H]1CC[C@@H](Nc2nc3c(c(N(C)C)n2)CCCC3)CC1 [compound 1950]	3 (Class 3 The value of percent of control at 10^−7 M was more than 60% or the value of IC50 was more than 200 nM.)
CNC(=S)N[C@H]1CC[C@@H](Nc2nc3c(c(N(C)C)n2)CCCC3)CC1 [compound 1951]	3 (Class 3 The value of percent of control at 10^−7 M was more than 60% or the value of IC50 was more than 200 nM.)
CN(C)c1nc(N[C@H]2CC[C@@H](NC(=S)Nc3cccc([N+](=O)[O-])c3)CC2)nc2c1CCCC2 [compound 1952]	3 (Class 3 The value of percent of control at 10^−7 M was more than 60% or the value of IC50 was more than 200 nM.)
CN(C)c1nc(N[C@H]2CC[C@@H](NC(=S)Nc3ccc([N+](=O)[O-])cc3)CC2)nc2c1CCCC2 [compound 1953]	3 (Class 3 The value of percent of control at 10^−7 M was more than 60% or the value of IC50 was more than 200 nM.)
CN(C)c1nc(N[C@H]2CC[C@@H](NC(=S)NC(C)(C)CC(C)(C)C)CC2)nc2c1CCCC2 [compound 1954]	3 (Class 3 The value of percent of control at 10^−7 M was more than 60% or the value of IC50 was more than 200 nM.)
CN(C)c1nc(N[C@H]2CC[C@@H](NC(=S)Nc3ccccc3)CC2)nc2c1CCCC2 [compound 1955]	3 (Class 3 The value of percent of control at 10^−7 M was more than 60% or the value of IC50 was more than 200 nM.)
CCCNC(=S)N[C@H]1CC[C@@H](Nc2nc3c(c(N(C)C)n2)CCCC3)CC1 [compound 1956]	3 (Class 3 The value of percent of control at 10^−7 M was more than 60% or the value of IC50 was more than 200 nM.)
CN(C)c1nc(N[C@H]2CC[C@@H](NC(=S)Nc3cccc(C(F)(F)F)c3)CC2)nc2c1CCCC2 [compound 1957]	3 (Class 3 The value of percent of control at 10^−7 M was more than 60% or the value of IC50 was more than 200 nM.)

Compound	class
Cc1ccc(NC(=S)N[C@H]2CC[C@@H](Nc3nc4c(c(N(C)C)n3)CCCC4)CC2)cc1 [compound 1959]	3 (Class 3 The value of percent of control at 10^−7 M was more than 60% or the value of IC50 was more than 200 nM.)
Cc1ccccc1NC(=S)N[C@H]1CC[C@@H](Nc2nc3c(c(N(C)C)n2)CCCC3)CC1 [compound 1960]	3 (Class 3 The value of percent of control at 10^−7 M was more than 60% or the value of IC50 was more than 200 nM.)
CN(C)c1nc(N[C@H]2CC[C@@H](NC(=S)NC(C)(C)C)CC2)nc2c1CCCC2 [compound 1961]	3 (Class 3 The value of percent of control at 10^−7 M was more than 60% or the value of IC50 was more than 200 nM.)
CN(C)c1nc(N[C@H]2CC[C@@H](NC(=S)Nc3ccccc3Br)CC2)nc2c1CCCC2 [compound 1963]	3 (Class 3 The value of percent of control at 10^−7 M was more than 60% or the value of IC50 was more than 200 nM.)
CN(C)c1nc(N[C@H]2CC[C@@H](NC(=S)Nc3ccccc3Cl)CC2)nc2c1CCCC2 [compound 1964]	3 (Class 3 The value of percent of control at 10^−7 M was more than 60% or the value of IC50 was more than 200 nM.)
CN(C)c1nc(N[C@H]2CC[C@@H](NC(=S)NCCc3ccccc3)CC2)nc2c1CCCC2 [compound 1965]	3 (Class 3 The value of percent of control at 10^−7 M was more than 60% or the value of IC50 was more than 200 nM.)
CCc1ccc(NC(=S)N[C@H]2CC[C@@H](Nc3nc4c(c(N(C)C)n3)CCCC4)CC2)cc1 [compound 1966]	3 (Class 3 The value of percent of control at 10^−7 M was more than 60% or the value of IC50 was more than 200 nM.)
CSc1ccccc1NC(=S)N[C@H]1CC[C@@H](Nc2nc3c(c(N(C)C)n2)CCCC3)CC1 [compound 1967]	3 (Class 3 The value of percent of control at 10^−7 M was more than 60% or the value of IC50 was more than 200 nM.)
CN(C)c1nc(N[C@H]2CC[C@@H](NC(=S)Nc3ccccc3OC(F)(F)F)CC2)nc2c1CCCC2 [compound 1968]	3 (Class 3 The value of percent of control at 10^−7 M was more than 60% or the value of IC50 was more than 200 nM.)
CN(C)c1nc(N[C@H]2CC[C@@H](NC(=S)Nc3ccccc3C(F)(F)F)CC2)nc2c1CCCC2 [compound 1969]	3 (Class 3 The value of percent of control at 10^−7 M was more than 60% or the value of IC50 was more than 200 nM.)
CN(C)c1nc(N[C@H]2CC[C@@H](NC(=S)Nc3ccc(F)c(F)c3F)CC2)nc2c1CCCC2 [compound 1970]	3 (Class 3 The value of percent of control at 10^−7 M was more than 60% or the value of IC50 was more than 200 nM.)
CN(C)c1nc(N[C@H]2CC[C@@H](NC(=S)Nc3cccc(Cl)c3Cl)CC2)nc2c1CCCC2 [compound 1971]	3 (Class 3 The value of percent of control at 10^−7 M was more than 60% or the value of IC50 was more than 200 nM.)
CN(C)c1nc(N[C@H]2CC[C@@H](NC(=S)Nc3ccc(F)cc3F)CC2)nc2c1CCCC2 [compound 1972]	3 (Class 3 The value of percent of control at 10^−7 M was more than 60% or the value of IC50 was more than 200 nM.)
COc1ccc(OC)c(NC(=S)N[C@H]2CC[C@@H](Nc3nc4c(c(N(C)C)n3)CCCC4)CC2)c1 [compound 1973]	3 (Class 3 The value of percent of control at 10^−7 M was more than 60% or the value of IC50 was more than 200 nM.)
CN(C)c1nc(N[C@H]2CC[C@@H](NC(=S)Nc3c(F)cccc3F)CC2)nc2c1CCCC2 [compound 1974]	3 (Class 3 The value of percent of control at 10^−7 M was more than 60% or the value of IC50 was more than 200 nM.)
CN(C)c1nc(N[C@H]2CC[C@@H](NC(=S)Nc3ccc([N+](=O)[O-])cc3Cl)CC2)nc2c1CCCC2 [compound 1975]	3 (Class 3 The value of percent of control at 10^−7 M was more than 60% or the value of IC50 was more than 200 nM.)
CN(C)c1nc(N[C@H]2CC[C@@H](NC(=S)Nc3ccccc3OC(F)F)CC2)nc2c1CCCC2 [compound 1976]	3 (Class 3 The value of percent of control at 10^−7 M was more than 60% or the value of IC50 was more than 200 nM.)
CN(C)c1nc(N[C@H]2CC[C@@H](NC(=S)Nc3cc(C(F)(F)F)ccc3F)CC2)nc2c1CCCC2 [compound 1977]	3 (Class 3 The value of percent of control at 10^−7 M was more than 60% or the value of IC50 was more than 200 nM.)
CN(C)c1nc(N[C@H]2CC[C@@H](NC(=S)Nc3ccccc3F)CC2)nc2c1CCCC2 [compound 1978]	3 (Class 3 The value of percent of control at 10^−7 M was more than 60% or the value of IC50 was more than 200 nM.)
CN(C)c1nc(N[C@H]2CC[C@@H](NC(=S)Nc3ccccc3I)CC2)nc2c1CCCC2 [compound 1979]	3 (Class 3 The value of percent of control at 10^−7 M was more than 60% or the value of IC50 was more than 200 nM.)
CN(C)c1nc(N[C@H]2CC[C@@H](NC(=S)Nc3cccc(SC(F)(F)F)c3)CC2)nc2c1CCCC2 [compound 1980]	3 (Class 3 The value of percent of control at 10^−7 M was more than 60% or the value of IC50 was more than 200 nM.)
